In US8946224B2, “Substituted [1,2,4]triazolo[4,3-A]pyrazines for medicaments and pharmaceutical compositions” (Redx Pharma Limited, priority 2010, dated 2015):
Values after ≈ are worked out from the molar mass of the structure shown. Values joined by “and” are separate entries in the source; they are usually repeats but may differ in a detail not shown here. Equal entries are not always repeated. Where two headings read alike, the source gives them in different places. Non-standard residues stand in square brackets, D forms with d. Residues, ends and D or L forms follow the SMILES beside them. Sta = CC(C)C[C@H](N)[C@@H](O)CC(=O)O

Columns and labels:
plasma triglycerides = experiment: Rat plasma triglyceride levels after 3 or 5 days BID treatment; format: in vivo; details: 25 mg/kg po BID for 3 or 5 days, 16 hours after the last dose
Description: The efficacy of particular rosuvastatin compounds was then determined in vivo.
112 male SD rats (Harlan) were housed in groups of 6 under a 12 h light dark cycle (lights on 07.00 h) with free access to food (normal laboratory chow) and water. Animals between 148-183 g were allocated to treatment groups of 8 balanced by body weight and treatments were balanced across cages.
The rosuvastatin analogues were made up in 10% PEG300/10% cremophor/80% methyl cellulose (0.5%) (vehicle 1) to make a 5 mg/mL solution. The rosuvastatin compounds used were:
Rosuvastatin was formulated in 0.5% Tween in 0.5% methyl cellulose (vehicle 2) at 5 mg/kg as a suspension.
Rats were orally dosed with vehicle 1, one of the rosuvastatin analogues in vehicle 1 (25 mg/kg), vehicle 2 or rosuvastatin in vehicle 2 (25 mg/kg po), BID for 3 or 5 days.
Sixteen hours after the last treatment, terminal plasma samples were taken, stored at −20° C., and transported on dry ice for analysis of triglyceride levels.
Data for each time-point were analysed by 1-way ANOVA and post-hoc Dunnett's test.

[1] = system: PathHunter NHRPro cell lines; experiment: PathHunter NHRPro cell assay, agonist format (Examples 90-92); format: cell-based; details: for EC50: read-out: RC50 (EC50)
[2] = system: PathHunter NHRPro cell lines; experiment: as above; format: cell-based; details: RARβ, NHR Protein Interaction; for Emax: read-out: Max Response; for EC50: read-out: RC50 (EC50)
Description: Methodology for Examples 90-92 Cell Handling
PathHunter NHRPro cell lines were expanded from freezer stocks in T25 flasks according to standard procedures and maintained in selective growth media prior to assay.
Once it was established that the cells were healthy and growing normally, cells were passaged from flasks using cell dissociation reagent and seeded into white walled clear bottom 384-well microplates for compound profiling.
For profiling, cells were seeded at a density of 10000 cells per well in a total volume of 20 μL and were allowed to adhere and recover overnight prior to compound addition. Media contained charcoal-dextran filtered serum to reduce the level of hormones present.
Intermediate dilution of compound stocks were generated such that 5 μL of 5× compound could be added to each well with a final DMSO concentration of 1% of total volume.
For profiling compound in agonist mode, the cells were incubated in the presence of compound at 37° C. for 5 hours.
After appropriate compound incubation, assay signal was generated through a single addition of 15 μL (50% v/v) of PathHunter Detection reagent cocktail for agonist and antagonist assays respectively followed by one hour incubation at room temperature.
Microplates were read following signal generation with a PerkinElmer Envision™ instrument for chemiluminescent signal detection.
Dose curves in the presence and absence of compound were plotted using GraphPad Prism or Activity Base.
For the agonist mode, percentage activity was calculated using the following formula: % Activity=100%×(Mean RLU of test sample−mean RLU of vehicle control)/(mean MAX RLU control ligand−mean RLU of vehicle control).

[3] = target: neuraminidase of oseltamivir-sensitive influenza virus (UniProt P03468); format: biochemical
Sequence of neuraminidase of oseltamivir-sensitive influenza virus (P03468 whole entry, looked up): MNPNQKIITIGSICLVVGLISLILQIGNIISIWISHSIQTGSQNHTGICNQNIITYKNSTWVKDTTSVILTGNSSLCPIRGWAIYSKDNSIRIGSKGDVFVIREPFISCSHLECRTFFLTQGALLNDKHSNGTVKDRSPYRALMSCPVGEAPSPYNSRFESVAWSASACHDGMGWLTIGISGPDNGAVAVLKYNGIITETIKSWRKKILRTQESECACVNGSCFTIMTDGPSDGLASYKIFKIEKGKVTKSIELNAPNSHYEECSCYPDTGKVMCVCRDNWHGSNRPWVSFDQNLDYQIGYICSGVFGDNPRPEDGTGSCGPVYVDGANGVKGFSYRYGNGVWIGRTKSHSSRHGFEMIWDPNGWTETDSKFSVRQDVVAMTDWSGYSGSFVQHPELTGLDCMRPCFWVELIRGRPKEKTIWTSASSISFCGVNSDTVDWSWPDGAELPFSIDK

[4] = system: anaerobic bacterial strains; experiment: microbe, parasite or virus in culture; format: cell-based, bacteria; details: read-out: MIC (>90%)
DPPIV = DPPIV (Homo sapiens, UniProt P27487); experiment: DPPIV protease inhibition, substrate Gly-Pro-AMC (Example 97); format: biochemical
Sequence of DPPIV (P27487 whole entry, species assumed): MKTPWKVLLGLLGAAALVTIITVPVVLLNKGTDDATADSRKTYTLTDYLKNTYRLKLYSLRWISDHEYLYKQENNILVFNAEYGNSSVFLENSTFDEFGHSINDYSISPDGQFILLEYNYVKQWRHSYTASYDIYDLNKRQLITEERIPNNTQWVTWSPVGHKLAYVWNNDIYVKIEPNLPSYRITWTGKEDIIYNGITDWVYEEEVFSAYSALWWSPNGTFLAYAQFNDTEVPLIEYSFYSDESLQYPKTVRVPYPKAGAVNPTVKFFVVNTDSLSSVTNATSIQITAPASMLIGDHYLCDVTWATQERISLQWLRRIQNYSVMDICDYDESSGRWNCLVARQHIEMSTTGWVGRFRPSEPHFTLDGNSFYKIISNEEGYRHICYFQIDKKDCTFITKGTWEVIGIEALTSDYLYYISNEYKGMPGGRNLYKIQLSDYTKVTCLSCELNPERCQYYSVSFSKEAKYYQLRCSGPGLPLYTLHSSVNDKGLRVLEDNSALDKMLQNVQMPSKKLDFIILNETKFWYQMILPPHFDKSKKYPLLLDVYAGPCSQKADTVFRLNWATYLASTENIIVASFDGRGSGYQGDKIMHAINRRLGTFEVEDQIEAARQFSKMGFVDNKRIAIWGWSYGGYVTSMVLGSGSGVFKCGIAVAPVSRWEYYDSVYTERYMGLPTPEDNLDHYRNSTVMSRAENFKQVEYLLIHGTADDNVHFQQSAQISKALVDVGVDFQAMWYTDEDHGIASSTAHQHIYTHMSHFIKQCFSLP
Description: (§1) The solutions of the compounds to be tested were prepared in DMSO at a concentration of 10 mM, divided into aliquots and stored at −20° C. The stock solutions were further diluted with assay buffer to make final test solutions. All the final test solutions contained no more than 2.0% DMSO.
(§2) Data were recorded by PHEARstar^PLUS.
(§3) Each assay was repeated for each compound 10 times.

renin = target: T1, renin (Homo sapiens, UniProt P00797); experiment: Renin inhibition (Comparative Example 98); format: biochemical
T1 sequence (P00797 67-406): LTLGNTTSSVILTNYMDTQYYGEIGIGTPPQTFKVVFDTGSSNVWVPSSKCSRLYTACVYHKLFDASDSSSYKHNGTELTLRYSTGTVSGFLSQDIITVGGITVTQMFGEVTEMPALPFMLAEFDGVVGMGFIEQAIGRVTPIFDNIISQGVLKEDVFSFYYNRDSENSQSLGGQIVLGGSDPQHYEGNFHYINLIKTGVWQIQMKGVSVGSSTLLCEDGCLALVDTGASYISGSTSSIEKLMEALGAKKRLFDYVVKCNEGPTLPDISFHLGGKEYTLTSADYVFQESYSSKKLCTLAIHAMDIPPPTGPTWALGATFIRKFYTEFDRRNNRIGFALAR
Description: as §1, §2, §3

HepG2 cells = experiment: HepG2 cytotoxicity, MTT, 72 hours (Examples 93-95); format: cell-based; details: Cell Loss, Example 95, dosed 0.04-100 μM (compound 13b 0.02-50 μM)
Description: Methodology for Examples 93-95
A number of analogues were tested for their ability to kill cancer cells.
HepG2 cells were plated on 96-well tissue culture treated polystyrene plates at 0.5×10^4 cells in 100 μL per well. After 24 hr the cells are dosed with test compound at a range of concentrations and incubated for 72 hours. One hour prior to the end of the incubation period, the cells are loaded with MU [yellow; 3-(4,5-dimethyl-2-thiazolyl)-2,5-diphenyl-2H-tetrazolium bromide], the plates are dried and re-solubilised using DMSO. The plates are then scanned using SpectraFluor Plus (TECAN).
Cytotoxicity was assessed using MU. The assay provides a measurement of mitochondrial dehydrogenase activity and cell loss.
A decrease can indicate a loss of cells indicating toxicity due to necrosis, apoptosis or a reduction in cellular proliferation.
A decrease can also indicate an effect on mitochondrial function as mitochondrial dehydrogenasesreduce the MTT [yellow; 3-(4,5-dimethyl-2-thiazolyl)-2,5-diphenyl-2H-tetrazolium bromide] to formazan. The formazan is detected in this assay.
The cells were dosed at concentrations of 0.04, 0.1, 0.4, 1, 4, 10, 40 and 100 μM. The assay was repeated three times at each concentration.
AC50=The concentration at which 50% maximum effect is observed for each cell health parameter.
The cells were dosed at concentrations of 0.02, 0.05, 0.2, 0.5, 2, 5, 20 and 50 μM. The assay was repeated three times at each concentration.
The cells were dosed at concentrations of 0.04, 0.1, 0.4, 1, 4, 10, 40 and 100 μM for bexarotene and the compound of formula 102 when Z is CH═NOH (compound 13a). The cells were dosed at concentrations of 0.02, 0.05, 0.2, 0.5, 2, 5, 20 and 50 μM for the compound of formula 102 when Z is CH═NOMe (compound 13b). The assay was repeated three times at each concentration.

[5] = Bacteroides fragilis, ATCC25293, 48 h
[6] = Prevotella melaninogenica, ATCC25845, 48 h

Question: For COC1C[C@H](OC(=O)c2cccnc2)C[C@@H](/C=C/c2c(-c3ccc(F)cc3)nc(N(C)S(C)(=O)=O)nc2C(C)C)O1 (stereo partly shown), which “In vivo (plasma triglycerides)” value (plasma triglycerides) is on record?
Answer: Its value is “Reduction in plasma triglycerides”.

Question: For “Angiotensin II (DRVYIHPF; Angiotensin-2; UniProt P01019 25-32, looked up)”, which “Max Response” value ([1]; AGTR1, Arrestin) is on record?
Answer: Its value is 101.02.

Question: And the EC50 ([1]; AGTR1, Arrestin)?
Answer: The EC50 was 10.2 nM.

Question: With CON=Cc1ccc2cc(-c3ccc(OC)c(C45CC6CC(CC(C6)C4)C5)c3)ccc2c1 [Compound 5b, 6-(3-(Adamantan-1-yl)-4-methoxyphenyl)-2-naphthaldehyde O-methyl oxime] as the compound, how does the Emax [2] read?
Answer: Its Emax is 81.1%.

Question: And the EC50 [2]?
Answer: Its EC50 is 830 nM.

Question: Which EC90 [3] does the source give for CCOC(=O)C1=C[C@@H](OC(CC)CC)[C@H](NC(C)=O)[C@@H](N)C1 [Oseltamivir, oseltamivir, reference compound] here?
Answer: Its EC90 is 1.3 nM.

Question: What does the source list for COc1ccc(-c2ccc3cc(CO)ccc3c2)cc1C12CC3CC(CC(C3)C1)C2 [Formula 135; Z is CH2OH]?
Answer: Max Response [2]: 131.9; EC50 [2]: 199 nM

Question: Which results are given for COC(Cn1c([N+](=O)[O-])cnc1C)OC [Compound 3a, 1-(2,2-Dimethoxyethyl)-2-methyl-5-nitro-1H-imidazole]?
Answer: MIC [4, 5]: 0.5 µg/mL (≈ 2.32 µM); MIC ([4]; Clostridioides difficile, 48 h): ≤ 0.25 µg/mL; MIC ([4]; Clostridium perfringens, 48 h): 1 µg/mL (≈ 4.65 µM); MIC [4, 6]: 0.5 µg/mL (≈ 2.32 µM)

Question: Which results are given for CC(C)c1nc(N(C)S(C)(=O)=O)nc(-c2ccc(F)cc2)c1/C=C/[C@@H](O)C[C@@H](O)CC(=O)O [Rosuvastatin, reference compound]?
Answer: In vivo (plasma triglycerides) (plasma triglycerides; 25 mg/kg): Reduction in; In vivo (plasma triglycerides) (plasma triglycerides; listed as rosuvastatin, 25 mg/kg): marked reduction in plasma triglycerides

Question: With CC(C)OC1C[C@H](OCc2ccccc2)C[C@@H](/C=C/c2c(-c3ccc(F)cc3)nc(N(C)S(C)(=O)=O)nc2C(C)C)O1 (stereo partly shown) as the compound, how does the “In vivo (plasma triglycerides)” value (plasma triglycerides) read?
Answer: The value was “Reduction in plasma triglycerides”.

Question: NC(=O)CC[C@@H]1NC(=O)[C@H](Cc2ccccc2)NC(=O)[C@H](Cc2ccc(O)cc2)NC(=O)[C@@H](N)CSSC[C@@H](C(=O)N2CCC[C@H]2C(=O)N[C@@H](CCCN=C(N)N)C(=O)NCC(N)=O)NC(=O)[C@H](CC(N)=O)NC1=O [Vasopressin] was tested. Which “Max Response” value ([1]; AVPR2, Arrestin) did it give?
Answer: Its value is 101.99.

Question: What about the EC50 ([1]; AVPR2, Arrestin) of the same compound?
Answer: The EC50 was 0.767 nM.

Question: Which results are given for Cc1ncc([N+](=O)[O-])n1CCO [Metronidazole, metronidazole, reference compound]?
Answer: MIC [4, 5]: 0.25 µg/mL (≈ 1.46 µM); MIC ([4]; Clostridioides difficile, 48 h): ≤ 0.25 µg/mL; MIC ([4]; Clostridium perfringens, 48 h): 0.5 µg/mL (≈ 2.92 µM); MIC [4, 6]: 0.25 µg/mL (≈ 1.46 µM)

Question: N[C@@H](CCN1CCn2c(nnc2C(F)(F)F)C1)Cc1cc(F)c(F)cc1F [Compound 24a, (R)-4-(3-(Trifluoromethyl)-5,6-dihydro-[1,2,4]triazolo[4,3-a]pyrazin-7(8H)-yl)-1-(2,4,5-trifluorophenyl)butan-2-amine] was tested. Which “Activity as inhibitor of DPPIV (in words)” value (DPPIV) did it give?
Answer: The value was “showed an activity”.

Question: And the IC50 (DPPIV; DPPIV, substrate Gly-Pro-AMC)?
Answer: The IC50 was 81.3 nM.

Question: Which results are given for CON=CCn1c([N+](=O)[O-])cnc1C [Compound 3b, 2-(2-Methyl-5-nitro-1H-imidazol-1-yl)acetaldehyde O-methyl oxime]?
Answer: MIC [4, 5]: 0.5 µg/mL (≈ 2.52 µM); MIC ([4]; Clostridioides difficile, 48 h): ≤ 0.25 µg/mL; MIC ([4]; Clostridium perfringens, 48 h): 1 µg/mL (≈ 5.05 µM); MIC [4, 6]: 0.5 µg/mL (≈ 2.52 µM)

Question: CC1=C(/C=C/C(C)=C\C=C\C(C)=C\C(=O)O)C(C)(C)CCC1 [9 Cis Retanoic acid] was tested. Which “Max Response” value [2] did it give?
Answer: Its value is 87.826 and 98.978.

Question: What about the EC50 [2] of the same compound?
Answer: Its EC50 is 5.04 nM and 7.14 nM.

Question: CC(=O)N[C@@H](Cc1c[nH]cn1)C(=O)N1CCC[C@H]1C(=O)N[C@@H](Cc1ccccc1)C(=O)N[C@H](C(=O)N[C@@H](CC(C)C)[C@@H](O)CC(=O)N[C@@H](CC(C)C)C(=O)N[C@@H](Cc1ccccc1)C(N)=O)C(C)C [Positive control, Ac-HPFV-(Sta)-LF-NH2] (Ac-HPFV[Sta]LF-NH2) was tested. Which IC50 (renin) did it give?
Answer: The IC50 was 8.4 nM.

Question: COCCCOc1cc(CC(CC2NC(=O)OC2CC(C(=O)NCC(C)(C)C#N)C(C)C)C(C)C)ccc1OC (stereo not shown) [comparative example] was tested. Which “Anti-influenza neuraminidase activity (in words)” value [3] did it give?
Answer: The value was “No activity was observed”.

Question: Which results are given for COc1ccc(-c2ccc3cc(C=NO)ccc3c2)cc1C12CC3CC(CC(C3)C1)C2 [Compound 5a, 6-(3-(Adamantan-1-yl)-4-methoxyphenyl)-2-naphthaldehyde oxime]?
Answer: Emax [2]: 45.1%; EC50 [2]: 1270 nM

Question: Which “MEC (minimum effective concentration that significantly crosses vehicle threshold)” value (HepG2 cells) does the source give for C=C(c1ccc(C(=O)O)cc1)c1cc2c(cc1C)C(C)(C)CCC2(C)C [Bexarotene, bexarotene, reference compound] here?
Answer: The value was 40 µM.

Question: And the AC50 (HepG2 cells; Homo sapiens, HepG2, read-out: AC50 (concentration at which 50% maximum effect is observed))?
Answer: Its AC50 is 44300 nM.

Question: What does the source list for COc1ccc(-c2ccc3cc(C=O)ccc3c2)cc1C12CC3CC(CC(C3)C1)C2 [Formula 135; Z is C(O)H]?
Answer: Max Response [2]: 115.93; EC50 [2]: 142 nM

Question: For CON=C(CC(=O)N1CCn2c(nnc2C(F)(F)F)C1)Cc1cc(F)c(F)cc1F (mixture of isomers) [Compound 24b, 3-(Methoxyimino)-1-(3-(trifluoromethyl)-5,6-dihydro-[1,2,4]triazolo[4,3-a]pyrazin-7(8H)-yl)-4-(2,4,5-trifluorophenyl)butan-1-one], which “Activity as inhibitor of DPPIV (in words)” value (DPPIV) is on record?
Answer: Its value is “did not exhibit significant activity”.

Question: With COc1ccc(-c2ccc3cc(C(=O)O)ccc3c2)cc1C12CC3CC(CC(C3)C1)C2 [Adapalene] as the compound, how does the Emax [2] read?
Answer: Its Emax is 147%.

Question: What about the EC50 [2] of the same compound?
Answer: Its EC50 is 1.8 nM.
